In ChEMBL document CHEMBL4311982, “Discovery of novel, potent, isosteviol-based antithrombotic agents” (Eur J Med Chem, 2019):

Legend:
Coagulation factor X = Coagulation factor X (Homo sapiens, UniProt P00742); assay: Inhibition of human activated Factor X using S-2765 as substrate incubated for 15 mins followed by substrate addition and measured after 1 hr by chromogenic assay
[1] = Cmax in Wistar rat at 22 umol/kg, po measured upto 24 hrs by LC-MS/MS analysis; type: ADME, organism-based; design: dose 22 umol/kg, route oral; conditions: in vivo
[2] = Half life in Wistar rat at 22 umol/kg, po measured upto 24 hrs by LC-MS/MS analysis; type: ADME, organism-based; conditions: in vivo
[3] = AUC (0 to infinity) in Wistar rat at 22 umol/kg, po measured upto 24 hrs by LC-MS/MS analysis; type: ADME, organism-based; design: dose 22 umol/kg, time infinity, route oral; conditions: in vivo
[4] = MRT in Wistar rat at 22 umol/kg, po measured upto 24 hrs by LC-MS/MS analysis; type: ADME, organism-based; conditions: in vivo
[5] = Clearance in Wistar rat at 22 umol/kg, po measured upto 24 hrs by LC-MS/MS analysis; type: ADME, organism-based; conditions: in vivo
[6] = Volume of distribution in Wistar rat at 22 umol/kg, po measured upto 24 hrs by LC-MS/MS analysis; type: ADME, organism-based; conditions: in vivo
[7] = Oral bioavailability in Wistar rat at 22 umol/kg measured upto 24 hrs by LC-MS/MS analysis; type: ADME, organism-based; conditions: in vivo
[8] = Half life in Wistar rat at 6.6 umol/kg, iv measured upto 24 hrs by LC-MS/MS analysis; type: ADME, organism-based; conditions: in vivo
[9] = AUC (0 to infinity) in Wistar rat at 6.6 umol/kg, iv measured upto 24 hrs by LC-MS/MS analysis; type: ADME, organism-based; design: dose 6.6 umol/kg, time infinity, route intravenous; conditions: in vivo
[10] = MRT in Wistar rat at 6.6 umol/kg, iv measured upto 24 hrs by LC-MS/MS analysis; type: ADME, organism-based; conditions: in vivo
[11] = Clearance in Wistar rat at 6.6 umol/kg, iv measured upto 24 hrs by LC-MS/MS analysis; type: ADME, organism-based; conditions: in vivo
[12] = Volume of distribution in Wistar rat at 6.6 umol/kg, iv measured upto 24 hrs by LC-MS/MS analysis; type: ADME, organism-based; conditions: in vivo
Rattus norvegicus [13] = organism: Rattus norvegicus; further: test concentration or dose not given here
Rattus norvegicus [14] = organism: Rattus norvegicus; remark: listed apart in the source; further: test concentration or dose not given here
Rattus norvegicus [15] = organism: Rattus norvegicus; remark: listed apart in the source; further: test concentration or dose not given here

Coagulation factor X, sequence (P00742 41-179 limits assumed): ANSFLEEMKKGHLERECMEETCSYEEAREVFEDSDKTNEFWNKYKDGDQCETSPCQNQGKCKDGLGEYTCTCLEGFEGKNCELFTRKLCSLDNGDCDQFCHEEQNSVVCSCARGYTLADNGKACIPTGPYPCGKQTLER
Coagulation factor X, sequence (P00742 235-488 limits assumed): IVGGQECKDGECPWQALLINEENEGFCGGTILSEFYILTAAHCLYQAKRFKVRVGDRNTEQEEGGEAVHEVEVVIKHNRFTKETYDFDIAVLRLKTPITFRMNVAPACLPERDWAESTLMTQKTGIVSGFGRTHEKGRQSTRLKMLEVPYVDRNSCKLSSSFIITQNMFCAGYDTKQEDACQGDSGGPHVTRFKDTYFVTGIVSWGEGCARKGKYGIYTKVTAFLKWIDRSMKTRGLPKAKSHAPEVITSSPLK

Structure (SMILES) | Ki (Coagulation factor X) [µM] | other results
CCOC(=O)[C@]1(C)CCC[C@@]2(C)[C@@H]3CC[C@@]4(C)C[C@]3(CC[C@@H]21)C/C4=N\OCCN1CCOCC1 | 0.785 | 
CCOC(=O)[C@]1(C)CCC[C@@]2(C)[C@@H]3CC[C@@]4(C)C[C@]3(CC[C@@H]21)C/C4=N\OC/C=C/c1ccc(CN2CCOCC2)cc1 | 2.49 | 
CCOC(=O)[C@]1(C)CCC[C@@]2(C)[C@@H]3CC[C@@]4(C)C[C@]3(CC[C@@H]21)C/C4=N\OC/C=C/c1cccc(C(F)(F)F)c1 | 4.86 | 
CCOC(=O)[C@]1(C)CCC[C@@]2(C)[C@@H]3CC[C@@]4(C)C[C@]3(CC[C@@H]21)C/C4=N\OC/C=C/c1cc(F)c(F)c(F)c1 | 1.98 | 
CCOC(=O)[C@]1(C)CCC[C@@]2(C)[C@@H]3CC[C@@]4(C)C[C@]3(CC[C@@H]21)C/C4=N\OC/C=C/c1ccc2oc3ccccc3c2c1 | 21 | 
CCOC(=O)[C@]1(C)CCC[C@@]2(C)[C@@H]3CC[C@@]4(C)C[C@]3(CC[C@@H]21)C/C4=N\OC/C=C/c1ccc2[nH]ccc2c1 | 4.67 | 
CCOC(=O)[C@]1(C)CCC[C@@]2(C)[C@@H]3CC[C@@]4(C)C[C@]3(CC[C@@H]21)C/C4=N\OC/C=C/c1ccc(C#N)cc1 | 13.3 | 
CCOC(=O)[C@]1(C)CCC[C@@]2(C)[C@@H]3CC[C@@]4(C)C[C@]3(CC[C@@H]21)C/C4=N\OC1CCOCC1 | 1.81 | 
CCOC(=O)[C@]1(C)CCC[C@@]2(C)[C@@H]3CC[C@@]4(C)C[C@]3(CC[C@@H]21)C/C4=N\OC/C=C/c1ccc2[nH]c3ccccc3c2c1 | 26.4 | 
CCOC(=O)[C@]1(C)CCC[C@@]2(C)[C@@H]3CC[C@@]4(C)C[C@]3(CC[C@@H]21)C/C4=N\OC/C=C/c1ccc(-c2cnco2)cc1 | 1.93 | 
CCOC(=O)[C@]1(C)CCC[C@@]2(C)[C@@H]3CC[C@@]4(C)C[C@]3(CC[C@@H]21)C/C4=N\OC/C=C/c1ccc2ncccc2c1 | 4.18 | 
CCOC(=O)[C@]1(C)CCC[C@@]2(C)[C@@H]3CC[C@@]4(C)C[C@]3(CC[C@@H]21)C/C4=N\OCc1cnc(Cl)s1 | 1.94 | 
CCOC(=O)[C@]1(C)CCC[C@@]2(C)[C@@H]3CC[C@@]4(C)C[C@]3(CC[C@@H]21)C/C4=N\OCC1OCCO1 | 1.61 | 
CCOC(=O)[C@]1(C)CCC[C@@]2(C)[C@@H]3CC[C@@]4(C)C[C@]3(CC[C@@H]21)C/C4=N\OC/C=C/c1c[nH]c(C(=O)OC)c1 | 1.91 | 
O=C(NC[C@H]1CN(c2ccc(N3CCOCC3=O)cc2)C(=O)O1)c1ccc(Cl)s1 [RIVAROXABAN] |  | Cmax [1]: 1580 ng/mL; half-life [2]: 222 min; AUC(0-inf) [3]: 6980 ng·h/mL; MRT [4]: 5.4 h; CL/F [5]: 25 mL/min; Vd [6]: 8.1 L; bioavailability [7]: 59.7%; half-life [8]: 264 min; AUC(0-inf) [9]: 3510 ng·h/mL; MRT [10]: 6.3 h; clearance [11]: 15 mL/min; Vd [12]: 5.5 L; PT (Rattus norvegicus [13]): 19.5 s; APTT (Rattus norvegicus [14]): 21.9 s; TT (Rattus norvegicus [15]): 23.4 min
CCOC(=O)[C@]1(C)CCC[C@@]2(C)[C@@H]3CC[C@@]4(C)C[C@]3(CC[C@@H]21)C/C4=N\OC/C=C/c1ccc2nccnc2c1 | 3.6 | 
CCOC(=O)[C@]1(C)CCC[C@@]2(C)[C@@H]3CC[C@@]4(C)C[C@]3(CC[C@@H]21)C/C4=N\OCc1ccc(OC(F)(F)F)cc1 | 1.02 | 
CCOC(=O)[C@]1(C)CCC[C@@]2(C)[C@@H]3CC[C@@]4(C)C[C@]3(CC[C@@H]21)C/C4=N\OC/C=C/c1ccc(C(C)=O)cc1 | 1.64 | 
CCOC(=O)[C@]1(C)CCC[C@@]2(C)[C@@H]3CC[C@@]4(C)C[C@]3(CC[C@@H]21)C/C4=N\OCc1c(C)noc1C | 2.88 | 
CCOC(=O)[C@]1(C)CCC[C@@]2(C)[C@@H]3CC[C@@]4(C)C[C@]3(CC[C@@H]21)C/C4=N\OC/C=C/c1ccc2occc2c1 | 10.3 | 
C[C@@]12CC[C@@H]3[C@@](CC[C@H]4[C@@]3(C)CCC[C@@]4(C)C(=O)O)(CC1=O)C2 [ISOSTEVIOL] | 13.4 | TT (Rattus norvegicus [15]): 17.2 min
CCOC(=O)[C@]1(C)CCC[C@@]2(C)[C@@H]3CC[C@@]4(C)C[C@]3(CC[C@@H]21)C/C4=N/O | 2.65 | TT (Rattus norvegicus [15]): 18.9 min

Structure (SMILES) | Ki (Coagulation factor X) [µM] | other results
C[C@@]12CC[C@@H]3[C@@](CC[C@H]4[C@@]3(C)CCC[C@@]4(C)C(=O)O)(C/C1=N/O)C2 | 7.99 | TT (Rattus norvegicus [15]): 12.9 min
CCOC(=O)[C@]1(C)CCC[C@@]2(C)[C@@H]3CC[C@@]4(C)C[C@]3(CC[C@@H]21)C/C4=N\OCc1c(F)c(F)c(F)c(F)c1F | 0.321 | 
CCOC(=O)[C@]1(C)CCC[C@@]2(C)[C@@H]3CC[C@@]4(C)C[C@]3(CC[C@@H]21)C/C4=N\OC/C=C/c1ccc([N+](=O)[O-])cc1 | 2.64 | 
CCOC(=O)[C@]1(C)CCC[C@@]2(C)[C@@H]3CC[C@@]4(C)C[C@]3(CC[C@@H]21)C/C4=N\OCc1ccc(C(F)(F)F)cc1 | 2.69 | 
CCOC(=O)[C@]1(C)CCC[C@@]2(C)[C@@H]3CC[C@@]4(C)C[C@]3(CC[C@@H]21)C/C4=N\OCc1cccc(Cl)c1 | 18.1 | 
CCOC(=O)[C@]1(C)CCC[C@@]2(C)[C@@H]3CC[C@@]4(C)C[C@]3(CC[C@@H]21)C/C4=N\OCc1csc2ccc(Cl)cc12 | 0.515 | 
C[C@@]12CC[C@@H]3[C@@](CC[C@H]4[C@@]3(C)CCC[C@@]4(C)C(=O)O)(C[C@H]1O)C2 | 27.6 | TT (Rattus norvegicus [15]): 9.2 min
CCOC(=O)[C@]1(C)CCC[C@@]2(C)[C@@H]3CC[C@@]4(C)C[C@]3(CC[C@@H]21)C/C4=N\OCc1cc(Cl)ccc1Cl | 9.25 | 
CCOC(=O)[C@]1(C)CCC[C@@]2(C)[C@@H]3CC[C@@]4(C)C[C@]3(CC[C@@H]21)C/C4=N\OC/C=C/c1ccc(F)cc1 | 6.17 | 
CCOC(=O)[C@]1(C)CCC[C@@]2(C)[C@@H]3CC[C@@]4(C)C[C@]3(CC[C@@H]21)C[C@H]4O | 25.1 | TT (Rattus norvegicus [15]): 9.4 min
CCOC(=O)[C@]1(C)CCC[C@@]2(C)[C@@H]3CC[C@@]4(C)C[C@]3(CC[C@@H]21)C/C4=N\OCc1ccc(F)cc1 | 4.33 | 
C=CCO/N=C1\C[C@]23CC[C@H]4[C@@](C)(CCC[C@@]4(C)C(=O)OCC)[C@@H]2CC[C@@]1(C)C3 | 8.61 | 
CCOC(=O)[C@]1(C)CCC[C@@]2(C)[C@@H]3CC[C@@]4(C)C[C@]3(CC[C@@H]21)C/C4=N\OCc1ccc(Cl)c(F)c1 | 9.79 | 
CCOC(=O)[C@]1(C)CCC[C@@]2(C)[C@@H]3CC[C@@]4(C)C[C@]3(CC[C@@H]21)C/C4=N\OC/C=C/c1ccc(OC(F)(F)F)cc1 | 1.97 | 
COC(=O)[C@H](c1ccccc1Cl)N1CCc2sccc2C1 [CLOPIDOGREL] |  | TT (Rattus norvegicus [15]): 21 min
CCOC(=O)[C@]1(C)CCC[C@@]2(C)[C@@H]3CC[C@@]4(C)C[C@]3(CC[C@@H]21)C/C4=N\OC/C=C/c1cccc2ccccc12 | 12.1 | 
CCOC(=O)c1ccc(CO/N=C2\C[C@]34CC[C@H]5[C@@](C)(CCC[C@@]5(C)C(=O)OCC)[C@@H]3CC[C@@]2(C)C4)o1 | 9.88 | 
CCOC(=O)[C@]1(C)CCC[C@@]2(C)[C@@H]3CC[C@@]4(C)C[C@]3(CC[C@@H]21)C/C4=N\OCc1cc(C)nn1C | 4.03 | 
CCOC(=O)[C@]1(C)CCC[C@@]2(C)[C@@H]3CC[C@@]4(C)C[C@]3(CC[C@@H]21)C/C4=N\OC/C=C/c1ccc2sccc2c1 | 0.211 | 
CCOC(=O)[C@]1(C)CCC[C@@]2(C)[C@@H]3CC[C@@]4(C)C[C@]3(CC[C@@H]21)CC4=O | 4.58 | TT (Rattus norvegicus [15]): 14.9 min
CCOC(=O)[C@]1(C)CCC[C@@]2(C)[C@@H]3CC[C@@]4(C)C[C@]3(CC[C@@H]21)C/C4=N\OC/C=C/c1ccccc1 | 10.7 | 
CCOC(=O)[C@]1(C)CCC[C@@]2(C)[C@@H]3CC[C@@]4(C)C[C@]3(CC[C@@H]21)C/C4=N\OC/C=C/c1ccc2c(c1)COC2=O | 20.7 | 
